Experimental data reported in US20250333424A1, “ANTIVIRAL COMPOUNDS” (Gilead Sciences, Inc., priority 2024, published 2025).

Each compound was assayed on monocytic THP1 cells infected with HIV VSV-G pseudotyped GFP-NEF reporter virus (assay: cells). Conditions: Human immunodeficiency virus 1, THP-1, 24 h.
Type: cell-based

**Q.** How did the EC50 turn out when `Cc1cc(/C=C/C#N)cc(C)c1Oc1nc(NC23CC(C#N)(C2)C3)nc2nc(C(F)F)[nH]c12` [Compound 26, (E)-3-((6-(4-(2-cyanovinyl)-2,6-dimethylphenoxy)-8-(difluoromethyl)-7H-purin-2-yl)amino)bicyclo[1.1.1]pentane-1-carbonitrile] was run?
**A.** Its EC50 is 347 nM.

**Q.** For `Cc1cc(/C=C/C#N)cc(C)c1Oc1nc(NC23CC(C#N)(C2)C3)nc2nc(-c3cncnc3)[nH]c12` [Compound 72, (E)-3-((6-(4-(2-cyanovinyl)-2,6-dimethylphenoxy)-8-(pyrimidin-5-yl)-7H-purin-2-yl)amino)bicyclo[1.1.1]pentane-1-carbonitrile], which EC50 is on record?
**A.** The EC50 was 308 nM.

**Q.** For `COc1n[nH]c2nc(NC34CC(C#N)(C3)C4)nc(Oc3c(C)cc(/C=C/C#N)cc3C)c12` [Compound 109, (E)-3-((4-(4-(2-cyanovinyl)-2,6-dimethylphenoxy)-3-methoxy-1H-pyrazolo[3,4-d]pyrimidin-6-yl)amino)bicyclo[1.1.1]pentane-1-carbonitrile], which EC50 is on record?
**A.** Its EC50 is 200 nM.

**Q.** `Cc1cc(/C=C/C#N)cc(C)c1Oc1nc(NC23CC(C#N)(C2)C3)nc2c1C(C)N(CC1CC1)C2=O` (centres unmarked) [Example 210, (E)-3-((4-(4-(2-cyanovinyl)-2,6-dimethylphenoxy)-6-(cyclopropylmethyl)-5-methyl-7-oxo-6,7-dihydro-5H-pyrrolo[3,4-d]pyrimidin-2-yl)amino)bicyclo[1.1.1]pentane-1-carbonitrile] was tested. Which EC50 did it give?
**A.** The EC50 was 125 nM.

**Q.** For `Cc1cc(/C=C/C#N)cc(C)c1Oc1nc(NC23CC(C#N)(C2)C3)nc2c1C(C)N(C)C2=O` (centres unmarked) [Compound 140, (E)-3-((4-(4-(2-cyanovinyl)-2,6-dimethylphenoxy)-5,6-dimethyl-7-oxo-6,7-dihydro-5H-pyrrolo[3,4-d]pyrimidin-2-yl)amino)bicyclo[1.1.1]pentane-1-carbonitrile], which EC50 is on record?
**A.** Its EC50 is 14.3 nM.

**Q.** `Cc1cc(/C=C/C#N)cc(C)c1Oc1nc(NC23CC(C#N)(C2)C3)nc2c1C(C)N(Cc1ccnn1C)C2=O` (centres unmarked) [Example 212, (E)-3-((4-(4-(2-cyanovinyl)-2,6-dimethylphenoxy)-5-methyl-6-((1-methyl-1H-pyrazol-5-yl)methyl)-7-oxo-6,7-dihydro-5H-pyrrolo[3,4-d]pyrimidin-2-yl)amino)bicyclo[1.1.1]pentane-1-carbonitrile] was tested. Which EC50 did it give?
**A.** Its EC50 is 47.1 nM.

**Q.** With `Cc1cc(/C=C/C#N)cc(C)c1Oc1nc(NC23CC(C#N)(C2)C3)nc2nn(CC(F)F)cc12` [Example 234, (E)-3-((4-(4-(2-cyanovinyl)-2,6-dimethylphenoxy)-2-(2,2-difluoroethyl)-2H-pyrazolo[3,4-d]pyrimidin-6-yl)amino)bicyclo[1.1.1]pentane-1-carbonitrile] as the compound, how does the EC50 read?
**A.** The EC50 was 332 nM.

**Q.** `Cc1cc(/C=C/C#N)cc(C)c1Oc1nc(NC23CC(C#N)(C2)C3)nc2[nH]nc(Br)c12` [Compound 90, (E)-3-((3-bromo-4-(4-(2-cyanovinyl)-2,6-dimethylphenoxy)-1H-pyrazolo[3,4-d]pyrimidin-6-yl)amino)bicyclo[1.1.1]pentane-1-carbonitrile] was tested. Which EC50 did it give?
**A.** Its EC50 is 25.4 nM.

**Q.** `CCc1nc2nc(NC34CC(C#N)(C3)C4)nc(Oc3c(C)cc(/C=C/C#N)cc3C)c2n1C(F)F` [Compound 17, (E)-3-((6-(4-(2-cyanovinyl)-2,6-dimethylphenoxy)-7-(difluoromethyl)-8-ethyl-7H-purin-2-yl)amino)bicyclo[1.1.1]pentane-1-carbonitrile] was tested. Which EC50 did it give?
**A.** Its EC50 is 21.4 nM.

**Q.** How did the EC50 turn out when `Cc1cc(/C=C/C#N)cc(C)c1Oc1nc(NC23CC(C#N)(C2)C3)nc2[nH]nc(C(F)F)c12` [Compound 91, (E)-3-((4-(4-(2-cyanovinyl)-2,6-dimethylphenoxy)-3-(difluoromethyl)-1H-pyrazolo[3,4-d]pyrimidin-6-yl)amino)bicyclo[1.1.1]pentane-1-carbonitrile] was run?
**A.** Its EC50 is 42.3 nM.

**Q.** Which EC50 does the source give for `Cc1cc(/C=C/C#N)cc(C)c1Oc1nc(NC23CC(C#N)(C2)C3)nc2noc(C)c12` [Compound 111, (E)-3-((4-(4-(2-cyanovinyl)-2,6-dimethylphenoxy)-3-methylisoxazolo[3,4-d]pyrimidin-6-yl)amino)bicyclo[1.1.1]pentane-1-carbonitrile] here?
**A.** Its EC50 is 30.6 nM.

**Q.** How did the EC50 turn out when `Cc1cc(/C=C/C#N)cc(C)c1Oc1nc(NC23CC(C#N)(C2)C3)nc2nc(C3CCCCC3)[nH]c12` [Compound 51, (E)-3-((6-(4-(2-cyanovinyl)-2,6-dimethylphenoxy)-8-cyclohexyl-7H-purin-2-yl)amino)bicyclo[1.1.1]pentane-1-carbonitrile] was run?
**A.** The EC50 was 374 nM.

**Q.** For `Cc1cc(/C=C/C#N)cc(C)c1Oc1nc(NC23CC(C#N)(C2)C3)nc2c1C(C)(O)N(CC#N)C2=O` (centres unmarked) [Compound 316, (E)-3-((6-(cyanomethyl)-4-(4-(2-cyanovinyl)-2,6-dimethylphenoxy)-5-hydroxy-5-methyl-7-oxo-6,7-dihydro-5H-pyrrolo[3,4-d]pyrimidin-2-yl)amino)bicyclo[1.1.1]pentane-1-carbonitrile], which EC50 is on record?
**A.** The EC50 was 77.5 nM.

**Q.** With `Cc1cc(/C=C/C#N)cc(C)c1Oc1nc(NC23CC(C#N)(C2)C3)nc2c1C(C)N(CCN1CCOCC1)C2=O` (centres unmarked) [Example 214, (E)-3-((4-(4-(2-cyanovinyl)-2,6-dimethylphenoxy)-5-methyl-6-(2-morpholinoethyl)-7-oxo-6,7-dihydro-5H-pyrrolo[3,4-d]pyrimidin-2-yl)amino)bicyclo[1.1.1]pentane-1-carbonitrile] as the compound, how does the EC50 read?
**A.** The EC50 was 59.1 nM.

**Q.** `Cc1cc(/C=C/C#N)cc(C)c1C(O)c1nc(NC23CC(C#N)(C2)C3)nc2nn(C)cc12` (centres unmarked) [Compound 276, (E)-3-((4-((4-(2-cyanovinyl)-2,6-dimethylphenyl)(hydroxy)methyl)-2-methyl-2H-pyrazolo[3,4-d]pyrimidin-6-yl)amino)bicyclo[1.1.1]pentane-1-carbonitrile] was tested. Which EC50 did it give?
**A.** Its EC50 is 194 nM.

**Q.** With `Cc1cc(/C=C/C#N)cc(C)c1Nc1nc(NC23CC(C#N)(C2)C3)nc2nn(C)cc12` [Example 237, 3-[[4-[4-[(E)-2-cyanovinyl]-2,6-dimethyl-anilino]-2-methyl-pyrazolo[3,4-d]pyrimidin-6-yl]amino]bicyclo[1.1.1]pentane-1-carbonitrile] as the compound, how does the EC50 read?
**A.** The EC50 was 119 nM.

**Q.** `Cc1cc(/C=C/C#N)cc(C)c1Oc1nc(NC23CC(C#N)(C2)C3)nc2c1[C@@H](C)N(C1CC1)C2=O` [Compound 180, (R,E)-3-((4-(4-(2-cyanovinyl)-2,6-dimethylphenoxy)-6-cyclopropyl-5-methyl-7-oxo-6,7-dihydro-5H-pyrrolo[3,4-d]pyrimidin-2-yl)amino)bicyclo[1.1.1]pentane-1-carbonitrile] was tested. Which EC50 did it give?
**A.** Its EC50 is 92.9 nM.

**Q.** Which EC50 does the source give for `COC1NC(=O)c2nc(NC34CC(C#N)(C3)C4)nc(Oc3c(C)cc(/C=C/C#N)cc3C)c21` (centres unmarked) [Compound 287, (E)-3-((4-(4-(2-cyanovinyl)-2,6-dimethylphenoxy)-5-methoxy-7-oxo-6,7-dihydro-5H-pyrrolo[3,4-d]pyrimidin-2-yl)amino)bicyclo[1.1.1]pentane-1-carbonitrile] here?
**A.** The EC50 was 26.2 nM.

**Q.** `Cc1cc(/C=C/C#N)cc(C)c1Oc1nc(NC23CC(C#N)(C2)C3)nc2c1C1(C)OC[C@H](F)CN1C2=O` (stereo partly drawn) [Example 202, 3-(((7R)-4-(4-((E)-2-cyanovinyl)-2,6-dimethylphenoxy)-7-fluoro-4b-methyl-10-oxo-4b,7,8,10-tetrahydro-6H-pyrimido[5′,4′:3,4]pyrrolo[2,1-b][1,3]oxazin-2-yl)amino)bicyclo[1.1.1]pentane-1-carbonitrile] was tested. Which EC50 did it give?
**A.** Its EC50 is 18.9 nM.

**Q.** How did the EC50 turn out when `Cc1cc(/C=C/C#N)cc(C)c1Oc1nc(NC23CC(C#N)(C2)C3)nc2nnn(C)c12` [Compound 81, (E)-3-((7-(4-(2-cyanovinyl)-2,6-dimethylphenoxy)-1-methyl-11H-[1,2,3]triazolo[4,5-d]pyrimidin-5-yl)amino)bicyclo[1.1.1]pentane-1-carbonitrile] was run?
**A.** The EC50 was 35.6 nM.

**Q.** For `Cc1cc(/C=C/C#N)cc(C)c1Oc1nc(NC23CC(C#N)(C2)C3)nc2c1C(C)N(C1COC1)C2=O` (centres unmarked) [Example 208, (E)-3-((4-(4-(2-cyanovinyl)-2,6-dimethylphenoxy)-5-methyl-6-(oxetan-3-yl)-7-oxo-6,7-dihydro-5H-pyrrolo[3,4-d]pyrimidin-2-yl)amino)bicyclo[1.1.1]pentane-1-carbonitrile], which EC50 is on record?
**A.** The EC50 was 28.8 nM.

**Q.** For `Cc1cc(/C=C/C#N)cc(C)c1Oc1nc(NC23CC(C#N)(C2)C3)nc2c1[C@H](C)N(CC(F)F)C2=O` [Example 240, (S,E)-3-((4-(4-(2-cyanovinyl)-2,6-dimethylphenoxy)-6-(2,2-difluoroethyl)-5-methyl-7-oxo-6,7-dihydro-5H-pyrrolo[3,4-d]pyrimidin-2-yl)amino)bicyclo[1.1.1]pentane-1-carbonitrile], which EC50 is on record?
**A.** The EC50 was 35.2 nM.

**Q.** `Cc1cc(/C=C/C#N)cc(C)c1Oc1nc(NC23CC(C#N)(C2)C3)nc2c1/C(=C/F)N(C1CC1)C2=O` [Compound 268, 3-(((Z)-4-(4-((E)-2-cyanovinyl)-2,6-dimethylphenoxy)-6-cyclopropyl-5-(fluoromethylene)-7-oxo-6,7-dihydro-5H-pyrrolo[3,4-d]pyrimidin-2-yl)amino)bicyclo[1.1.1]pentane-1-carbonitrile] was tested. Which EC50 did it give?
**A.** The EC50 was 173 nM.

**Q.** For `Cc1cc(/C=C/C#N)cc(C)c1Oc1nc(NC23CC(C#N)(C2)C3)nc2c(=O)n3n(c12)CCC3` [Compound 295, (E)-3-((4-(4-(2-cyanovinyl)-2,6-dimethylphenoxy)-10-oxo-7,8-dihydro-6H,10H-pyrazolo[1′,2′:1,2]pyrazolo[4,3-d]pyrimidin-2-yl)amino)bicyclo[1.1.1]pentane-1-carbonitrile], which EC50 is on record?
**A.** Its EC50 is 55.3 nM.

**Q.** For `Cc1cc(/C=C/C#N)cc(C)c1Oc1nc(NC23CC(C#N)(C2)C3)nc2c1C(C)N(c1cnn(C3CC3)c1)C2=O` (centres unmarked) [Example 224, (E)-3-((4-(4-(2-cyanovinyl)-2,6-dimethylphenoxy)-6-(1-cyclopropyl-1H-pyrazol-4-yl)-5-methyl-7-oxo-6,7-dihydro-5H-pyrrolo[3,4-d]pyrimidin-2-yl)amino)bicyclo[1.1.1]pentane-1-carbonitrile], which EC50 is on record?
**A.** The EC50 was 51.1 nM.

**Q.** `COCn1cc(N2C(=O)c3nc(NC45CC(C#N)(C4)C5)nc(Oc4c(C)cc(/C=C/C#N)cc4C)c3C2C)cn1` (centres unmarked) [Example 223, (E)-3-((4-(4-(2-cyanovinyl)-2,6-dimethylphenoxy)-6-(1-(methoxymethyl)-1H-pyrazol-4-yl)-5-methyl-7-oxo-6,7-dihydro-5H-pyrrolo[3,4-d]pyrimidin-2-yl)amino)bicyclo[1.1.1]pentane-1-carbonitrile] was tested. Which EC50 did it give?
**A.** Its EC50 is 38.3 nM.
